Measured values from patent US20200393345A1, “HEPARIN-BASED BLOOD SAMPLER WITHOUT PLATELET ACTIVATION” (Radiometer Medical ApS, priority 2017, published 2020).
Entries after “also recorded” stand apart in the source; their conditions may differ. Counter-ions that a name gives are not always drawn.

How the values were obtained:
Assay type in all cases: cell-based
[1] = tested on: platelets; assay: Manual platelet count (single platelets, platelet aggregates) in heparinized blood with anti-platelet agents, hemocytometer; conditions: two concentration levels of drug, mixed 15 minutes; for Single platelet count compared to EDTA reference: venous whole blood in PICO70 samplers with heparin 60 IU/mL (LiHep or PicoSAM); for Formation of platelet aggregates compared to LiHep and PicoSAM references / Number of platelet aggregates compared to EDTA / Single platelet count compared to LiHep and PicoSAM controls: venous whole blood in PICO70 samplers with heparin
Protocol: Each experiment was conducted on a separate day with blood from one voluntary donor testing one anti-platelet drug candidate. For each experiment PICO70 syringe samplers (Radiometer Medical ApS) were prepared just before sample drawing. For “LiHep” (Liquid Heparin) conditions, PICO70 samplers were emptied of the gold ball and heparin brick and 15 μl of aqueous liquid balanced heparin comprising heparin lithium (Celsus Laboratories) and heparin sodium (Celsus Laboratories) (final heparin conc. 60 IU/mL blood) and 15 μl of the solvent of the tested drug were added. For “PicoSAM” conditions, unmodified PICO70 samplers (with gold ball and heparin brick) were used and 15 μl of the solvent of the respective tested drug was added. For “LiHep xxx drug” conditions, PICO70 samplers were emptied as described for LiHep and 15 μl of liquid balanced heparin (final heparin conc. 60 IU/mL blood) and 15 μl of the dissolved tested drug were added. For “PicoSAM xxx drug” conditions, unmodified PICO70 samplers (with gold ball and heparin brick) were used and 15 μl of the dissolved tested drug was added. […] 600 μM and 6 mM) and dipyridamole (Sigma, D9766; dissolved in 1:10 or 1:100 DMSO in saline, final conc. 10 and 100 μM). An EDTA tube (BD Vacutainer with spray-coated K2EDTA, 10 ml) and duplicate samples of all conditions of PICO70 syringe samplers were filled by drawing venous blood via a butterfly needle using a sealed VTC (vented tip cap) to fill the otherwise self-aspirating PICO70 samplers with 1.5 mL venous whole blood. Samplers were inverted 8 times immediately after drawing to insure proper anticoagulation of the samples. The blood samples were mixed gently by hand (samplers without gold ball) or on a SAM mixer (Radiometer Medical ApS) for 15 minutes after drawing the sample. Mixed samples were fixed immediately with 10% formalin solution (1:1 dilution of blood in formalin) for at least 10 minutes and further diluted 1:10 in platelet dilution solution to hemolyze red blood cells (RBCs) to assessed manual platelet count using a hemocytometer. […] Single platelet counts were adjusted for dilution with liquid heparin and or dissolved drug solution to calculate single platelet concentrations.

[2] = tested on: WBCs (white blood cells) and platelets; assay: Wet mount images of stained and hemolyzed blood samples; conditions: for Platelets in stained wet mount images (single, aggregated, satellinism) / WBC aggregates in stained wet mount images: PicoSAM samples, 1 μM tirofiban, 20 μM eptifibatide, 100 nM iloprost
Protocol: Venous blood samples were drawn and mixed as described before in Example 1 and used to prepare stained wet mounts images. Blood samples were mixed with a staining and hemolyzing agent (methylene blue and deoxycholic acid, respectively) and incubated at 47° C. in a water bath for 30 seconds. Stained and hemolyzed blood samples were then prepared in wet mount samples on a glass slide and covered with a glass coverslip. Images of stained samples were then acquired with a Leica 750 microscope using a 40× air objective in bright field mode. An image processing software (FIJI, ImageJ) was used to select regions of interest (ROIs) of representative stained WBCs from the images.

[3] = tested on: platelets; assay: Wet mount phase-contrast images of fixed blood samples, platelet aggregation; conditions: fixed venous blood, 40x phase-contrast; eptifibatide 20 μM added to heparin
Description: Venous blood samples drawn, mixed and fixed with 10% formalin solution, as described before in Example 1 were used to prepare wet mounts on a glass slide and covered with a glass coverslip. Wet mount samples of fixed blood cells were then imaged with a Leica 750 microscope using a 40× phase-contrast air objective.

Row | Compound | Single platelet count compared to EDTA reference [1] | Formation of platelet aggregates compared to LiHep and PicoSAM references [1] | Number of platelet aggregates compared to EDTA [1] | Platelets in stained wet mount images (single, aggregated, satellinism) [2] | WBC aggregates in stained wet mount images [2] | WBC aggregation in the blood sample (leukocyte activation) ([2]; statement in the description) | Single platelet count compared to LiHep and PicoSAM controls [1] | Platelet aggregates in microscopic images [3]
1 | CC#CCC(C)[C@H](O)/C=C/[C@@H]1[C@H]2C/C(=C/CCCC(=O)O)C[C@H]2C[C@H]1O (stereo partly drawn) [Iloprost, iloprost] | comparable to standard EDTA anticoagulated blood | reduced the formation of platelet aggregates | no or few aggregates | single platelets, not platelet satellinism | not platelet satellinism or WBC aggregates | very low WBC aggregation |  | 
2 | N=C(N)NCCC[C@H](N)C(=O)O [L-Arginine] | decreased number of platelets |  | higher number of platelet aggregates |  |  |  | slightly higher platelet count | 
3 | O=C(O)CN(CCN(CC(=O)O)CC(=O)O)CC(=O)O [EDTA, Ethylenediaminetetraacetic acid] |  |  |  | same results | same results |  |  | prevents platelet activation and maintains single platelets; also recorded: cannot be seen
4 | heparin |  |  |  |  |  |  |  | allows or even potentiates platelet aggregation; also recorded: showed platelet aggregates
5 | eptifibatide acetate | comparable to standard EDTA anticoagulated blood | reduced the formation of platelet aggregates | no or few aggregates | single platelets but also platelet satellinism | WBC aggregates were also observed |  |  | cannot be observed; also recorded: cannot be seen
6 | Clc1ccccc1CN1CCc2sccc2C1 [Ticlopidine LiHep, ticlopidine hydrochloride] |  | slightly reduced number of aggregates |  |  |  |  |  | 
7 | O=S(=O)([O-])[O-].[Mg+2] [MgSO4] |  | reduced the formation of platelet aggregates |  |  |  |  |  | 
8 | CCCCS(=O)(=O)N[C@@H](Cc1ccc(OCCCCC2CCNCC2)cc1)C(=O)O [Tirofiban, tirofiban hydrochloride monohydrate] | comparable to standard EDTA anticoagulated blood | reduced the formation of platelet aggregates | no or few aggregates | single platelets but also platelet satellinism | WBC aggregates were also observed |  |  | 
9 | OCCN(CCO)c1nc(N2CCCCC2)c2nc(N(CCO)CCO)nc(N3CCCCC3)c2n1 [Dipyridamole, dipyridamole] |  |  |  |  |  |  | slightly higher platelet number | 
